Experimental data: US20080194506A1, “Oligodeoxyribonuleotides of 4000-10000 Dalton for Treating” (Gentium SPA, priority 2005, published 2008)

Tests used:
[1] = tested on: transdifferentiating ELC (TuDC-ELC); experiment: Matrigel tube formation assay of TuDC-ELC; assay type: cell-based, human
Source text: We have recently developed a model for an alternative pathway of tumor angiogenesis. […] These endothelial-like cells (ELC) can transdifferentiate from tumor-associated dendritic cells under specific culture conditions (11). Briefly, monocytes are elutriated from leukapheresis products of healthy human blood donors and cultured in the presence of granulocyte-macrophage-colony stimulating factor (GM-CSF) and interleukin 4 (IL-4) to stimulate the differentiation of dendritic cells (DC). In addition, cells are treated with a cocktail specifically released by tumor cells (M-CSF, IL.6 and lactate, Gottfried et al., manuscript submitted) to promote the outgrowth of tumor-associated dendritic cells (TuDC).
These TuDC-ELC acquire the phenotype of endothelial cells (FactorVIII related Ag, vWF) while they lose monocytic (CD14) and dendritic cell markers (CD1a). […] In addition, they are able to form tube-like structures in Matrigel™, an in vitro assay of angiogenesis.
The Matrigel™ assay is one of the most popular and widely used in vitro angiogenesis assays (22). […]
By the help of a complimentary software from the NIH (Image J, http://rsb.info.nih.gov/ij/), we are able to quantify these effects, the total length of tubes and the area of the photograph are assessed, the microvascular density (MVD) is then given in total length/area [pix-1].

[2] = tested on: human umbilical vene (HUVEC) endothelial cells; experiment: Matrigel tube formation assay of HUVEC; assay type: cell-based; settings: single addition, 10 μg/mL, 7 days, FIG. 1A
Experimental: (§1) The Matrigel™ assay is one of the most popular and widely used in vitro angiogenesis assays (22). Matrigel™ is a semisolid synthetic mixture of extracellular matrix proteins which simulate the matrix that physiologically exist beneath the endothelial cell wall of a blood vessel. When the cells of question are seeded onto this matrix in microscopic chamber slides, they are activated to form tubular structures in 3-7 days, but only in the case that they have an endothelial phenotype. Therefore, this assay is suitable to show the potential capacity of cells to give rise to a tumor vasculature.
(§2) TuDC-ELC and mature, differentiated endothelial cells, [human umbilical vene (HUVEC) or microvascular endothelial cells (HMEC) as “stable” controls] were incubated in the presence or absence of oligotide or Defibrotide (10 μg/mL each) for 7 days.

[3] = tested on: microvascular endothelial cells (HMEC); experiment: Matrigel tube formation assay of HMEC; assay type: cell-based, human; settings: single addition, 10 μg/mL, 7 days, FIG. 1A
Experimental: as §1, §2

[4] = tested on: rat aorta endothelial cells; experiment: Aortic ring assay: sprouting of rat aorta endothelial cells in Matrigel; assay type: cell-based; settings: applied on a daily basis, FIG. 2
[5] = tested on: human microvascular endothelial cells; experiment: In vitro angiogenesis assay: microvascular endothelial cells vascularizing through a layer of dermal fibroblasts; assay type: cell-based
Experimental: The aortic ring assay investigates macrovascular endothelial cells. But often, the tumor vasculature consists of microvascular endothelial cells. Therefore, a third in vitro angiogenesis assay was performed on the basis of microvascular endothelial cells vascularizing through a layer of dermal fibroblasts after 9-11 days of culture. These vessel-like structures can subsequently be visualized by staining for CD31 and vWF.

human gastric carcinoma = experiment: Dorsal skin chamber assay, human gastric carcinoma mouse model (Xenograft system); assay type: in vivo; settings: treated vs control tumors; first data
Source text: We are currently performing a dorsal skin chamber assay (14) that investigates the effect of defibrotide in a highly vascularized human gastric carcinoma mouse model (Xenograft system). […] This set of experiments will be reproduced in due time.

[6] = tested on: activated p70S6 kinase (p-p70S6); experiment: Western Blot analyses of activated p70S6 kinase; assay type: cell-based; settings: preliminary evidence
serum VEGF = experiment: Serum VEGF levels in patients after allogeneic stem cell transplantation; assay type: in vivo, human; settings: cohort of 17 treated patients after allogeneic SCT

## defibrotide
[1]; 10 μg/mL, 7 days, clinical and subclinical concentrations
  tube formation of transdifferentiating ELC (TuDC-ELC) in Matrigel: can inhibit tube formation
[1]; Image J quantification, p=0.02 TTEST, FIG. 1B
  microvascular density (MVD) of TuDC-ELC, total length/area: significantly (p=0.02, TTEST) downregulates MVD
[2]
  tube formation potential of HUVEC: not affected
[3]
  tube formation potential of HMEC: not affected
[4]
  prevention of sprouting of rat aorta endothelial cells in Matrigel: ~100%
[5]; daily application, 9-11 days of culture, FIGS. 3A and B
  angiogenesis of human microvascular endothelial cells: can also block angiogenesis
[5]; human microvascular endothelial cells, FIGS. 3A and B
  most effective concentration for blocking angiogenesis: around 10 μg/mL
[5]; single application
  angiogenesis of human microvascular endothelial cells: could not significantly block angiogenesis
Human gastric carcinoma
  microvascular density (MVD) of tumors: lower than that of control tumors
[6]
  effect on activated p70S6 kinase (p-p70S6): downregulating effect
Serum VEGF
  serum VEGF levels: striking decline
